{"source": "patent US20260182582A1", "about": "“METHODS AND COMPOSITIONS FOR BIOPROTECTION OF TOMATOES FROM CLAVIBACTER MICHIGANENSIS SUBSP. MICHIGANENSIS” (The Royal Institution for the Advancement of …, priority 2018, published 2026)", "test_system": "Cmm", "assay": "Agar well diffusion assay against Cmm", "type": "cell-based, Clavibacter michiganensis subsp. michiganensis", "protocol": "In addition, the antibacterial activity of various fractions and the purified antibiotic produced by B. pumilus was assessed via agar well diffusion assay. Cmm was grown as described above and a suspension of 100 μL was evenly spread over fresh NBYA plates using sterile spreader. Wells of 6 mm diameter were carefully made in the agar and 50 μL of the test fraction or antibiotic test sample extracted from B. pumilus was poured into the agar well. Sterilized distilled water served as a control treatment.\nThe antimicrobial activities of Micrococcin P1 at various concentrations were assessed via agar well diffusion assay. A cell suspension of Cmm was overlaid on NBYA and the plates were allowed to air dry. A 50 μL drop of Micrococcin P1 diluted in various concentrations were applied into agar well.", "note": "“And” between values parts separate entries of the source, which are not always exact repeats. Equal entries are not always repeated."}
{"substance": "Micrococcin P1", "values": [{"measurement": "antibacterial activity against Cmm, zone of inhibition around the well", "setting": "50 μL in 6 mm agar well, NBYA, 28° C., 3 days", "value": "antimicrobial activity against Cmm"}, {"measurement": "concentration having the most significant effects", "setting": "highest concentration tested", "value": "5 mg/L and 4.37 μM"}, {"measurement": "amount per well needed for growth inhibition zones", "setting": "per well in 50 μL, NBYA, 3 days 28° C.", "value": "≥ 7.8125", "unit": "ng"}, {"measurement": "dose dependence of antibacterial activities", "setting": "various concentrations, FIG. 7", "value": "increased proportional to the Micrococcin P1 concentrations"}]}
